The values that follow come from patent publication US9763942B2, “Serine/threonine kinase inhibitors” (Array BioPharma Inc., priority 2013, dated 2017).

Where two headings read alike, the source gives them in different places.

The test system of experiment [1] is PMA-stimulated P90RSK(Ser380) phosphorylation in HepG2 cells. As to the kind of experiment: Cellular P90RSK(Ser380) Phosphorylation Assay. It is filed as cell-based. As to conditions: Homo sapiens, 1.5 hours compound incubation, PMA 100 ng/mL 30 minutes, pP90RSK(Ser380) signal normalized to GAPDH, single assay or mean of multiple assays, read-out: Biological Example 2 IC50. As to the method:
Inhibition of PMA-stimulated P90RSK(Ser380) phosphorylation was determined by the following in vitro cellular mechanistic assay, which comprises incubating cells with a compound for 1.5 hours and quantifying fluorescent pP90RSK(Ser380) signal on fixed cells and normalizing to GAPDH signal.
HepG2 cells were obtained from ATCC and grown in DMEM supplemented with 10% fetal bovine serum. Cells were plated in 96-well plates at 35,000 cells/well and allowed to attach overnight at 37° C./5% CO2. Diluted compounds were then added at a final concentration of 0.5% DMSO. After 1.5 hours compound incubation, cells were stimulated with the addition of phorbol 12-myristate 13-acetate (“PMA”) at a final concentration of 100 ng/mL; the PMA stimulation was a 30-minute incubation at 37° C./5% CO2. After the 30-minute PMA stimulation, cells were washed with phosphate buffered saline (“PBS”) and fixed in 3.7% formaldehyde in PBS at room temperature for 15-20 minutes. This was followed by another wash in PBS and then permeabilization in 100% MeOH at room temperature for 10-15 minutes. Following the permeabilization incubation, cells were washed in PBS/0.05% Tween-20, followed by a block in Odyssey blocking buffer (LI-COR Biosciences) for at least 1 hour. Antibodies to phosphorylated P90RSK(Ser380) (Cell Signaling #9335, rabbit monoclonal) and GAPDH (Fitzgerald 10R-G109a, mouse monoclonal) were added to the cells and incubated overnight at 4° C. pP90RSK(Ser380) antibody was used at a 1:250 dilution; GAPDH was used at a 1:10,000 dilution. After washing with PBS/0.05% Tween-20, the cells were incubated with fluorescently-labeled secondary antibodies (Anti-rabbit-Alexa Flour680, Invitrogen Cat#A21109; Anti-mouse-IRDye800CW, Rockland Inc. Cat#610-131-121) for 1 hour. Both secondary antibodies were used at a 1:1000 dilution. Cells were then washed and analyzed for fluorescence at both wavelengths using the Odyssey Infrared Imaging System (LI-COR Biosciences). Phosphorylated P90RSK(Ser380) signal was normalized to GAPDH signal.

The target of experiment [2] is T1, human ERK-2 (Mitogen Activated Kinase 1) (Homo sapiens, UniProt P28482).
T1 construct: n-terminal 6-His fusion protein in E. coli and corresponding to aa 8-360; 6-His (N); made in house; host or cells: E. coli
T1 sequence (P28482 8-360): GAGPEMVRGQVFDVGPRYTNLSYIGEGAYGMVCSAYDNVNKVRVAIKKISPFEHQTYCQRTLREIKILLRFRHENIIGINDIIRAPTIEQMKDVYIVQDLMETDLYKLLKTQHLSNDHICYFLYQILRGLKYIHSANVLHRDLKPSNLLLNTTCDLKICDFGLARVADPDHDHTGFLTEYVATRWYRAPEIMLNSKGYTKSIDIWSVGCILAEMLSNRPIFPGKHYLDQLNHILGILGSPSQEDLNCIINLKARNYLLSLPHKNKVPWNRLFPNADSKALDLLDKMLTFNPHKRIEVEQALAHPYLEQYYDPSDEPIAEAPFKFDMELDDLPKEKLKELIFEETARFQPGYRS
Put plainly: ERK-2 Enzymatic Assay. In kind it is biochemical. From the text:
Table 1 contains representative data for Examples disclosed herein.

[3] abbreviates: 5 nM ERK-2 enzyme, 25 μM ATP (observed Km), Omnia peptide S/T17, single assay or mean of multiple assays, read-out: Biological Example 1 IC50.
[4] abbreviates: ERK-2 enzymatic assay, read-out: IC50.

The term IC50 denotes the concentration at which inhibition is half-maximal.

For the molecule `Cn1nccc1Nc1cc(-c2ccc3c(c2)nnn3Cc2ccc(Cl)cc2)ccn1` [Example 55, 4-(1-(4-chlorobenzyl)-1H-benzo[d][1,2,3]triazol-5-yl)-N-(1-methyl-1H-pyrazol-5-yl)pyridin-2-amine], the IC50 in experiment [1] is 0.184 µM; in experiment [2] (setting [3]), 0.0051 µM; in experiment [2] (setting [4]), less than 0.1 µM.

Turning to `Cc1ncccc1Cn1nnc2cc(-c3ccnc(Nc4ccnn4C)c3)ccc21` [Example 56, N-(1-methyl-1H-pyrazol-5-yl)-4-(1-((2-methylpyridin-3-yl)methyl)-1H-benzo[d][1,2,3]triazol-5-yl)pyridin-2-amine], the IC50 in experiment [1] is 0.781 µM; in experiment [2] (setting [3]) it was 0.0078 µM; in experiment [2] (setting [4]), less than 0.1 µM.

As for `Cc1cccc(Cn2nnc3cc(-c4ccnc(Nc5ccnn5C)n4)ccc32)n1` [Example 58, N-(1-methyl-1H-pyrazol-5-yl)-4-(1-((6-methylpyridin-2-yl)methyl)-1H-benzo[d][1,2,3]triazol-5-yl)pyrimidin-2-amine], the IC50 is 0.437 µM in experiment [1], 0.0114 µM in experiment [2] (setting [3]) and less than 0.1 µM in experiment [2] (setting [4]).

As for `Cn1nccc1Nc1nccc(-c2ccc3c(c2)nnn3CC2CNC2)n1` [Example 62, 4-(1-(azetidin-3-ylmethyl)-1H-benzo[d][1,2,3]triazol-5-yl)-N-(1-methyl-1H-pyrazol-5-yl)pyrimidin-2-amine], the IC50 was 1.4 µM in experiment [1], 0.0532 µM in experiment [2] (setting [3]) and less than 0.1 µM in experiment [2] (setting [4]).

Consider `COc1ccc([C@@H](c2cnn(C)c2)n2nnc3cc(-c4ccnc(Nc5ccnn5C)n4)ccc32)cc1F` [Example 70], for which the IC50 is 0.0791 µM in experiment [1], 0.0017 µM in experiment [2] (setting [3]) and less than 0.1 µM in experiment [2] (setting [4]).

With `COc1ccc([C@@H](c2nccn2C)n2nnc3cc(-c4ccnc(Nc5ccnn5C)n4)ccc32)cc1F` [Example 72, (S)-4-(1-((3-fluoro-4-methoxyphenyl)(1-methyl-1H-imidazol-2-yl)methyl)-1H-benzo[d][1,2,3]triazol-5-yl)-N-(1-methyl-1H-pyrazol-5-yl)pyrimidin-2-amine], the IC50 is 0.0037 µM in experiment [1], 0.002 µM in experiment [2] (setting [3]) and less than 0.1 µM in experiment [2] (setting [4]).

Take `CN1CC(n2nnc3cc(-c4ccnc(Nc5ccnn5C)n4)ccc32)C1` [Example 86, N-(1-methyl-1H-pyrazol-5-yl)-4-(1-(1-methylazetidin-3-yl)-1H-benzo[d][1,2,3]triazol-5-yl)pyrimidin-2-amine]: the 50% inhibitory concentration (IC50) in experiment [1] is 0.0218 µM; in experiment [2] (setting [3]), 0.0028 µM; in experiment [2] (setting [4]) it was less than 0.1 µM.

Turning to `Cn1nccc1Nc1nccc(-c2ccc3c(c2)nnn3CCn2cccn2)n1` [Example 104, 4-(1-(2-(1H-pyrazol-1-yl)ethyl)-1H-benzo[d][1,2,3]triazol-5-yl)-N-(1-methyl-1H-pyrazol-5-yl)pyrimidin-2-amine], the values for the IC50 in experiment [1], in experiment [2] (setting [3]) and in experiment [2] (setting [4]) were 0.0196 µM, 0.0022 µM and less than 0.1 µM, respectively.
